# Data published in US20100152434A1, “Protein Kinase-binding Nucleosides and Associated Methods” (priority 2007, published 2010).
# Experiments:
# CD2 L2 = CD2 L2 (Homo sapiens, UniProt Q9UQ88); assay: Ambit kinase phage display ATP-binding-site ligand binding assay; settings: read-out: percent inhibition of binding
# Text: (§4) In this assay, protein kinases are cloned into T7 bacteriophage which express the kinase fusion proteins on the phage capsid. T7 kinase-tagged phage are then screened for binding to ATP-binding-site ligands that have been immobilized on a solid support. Phage are screened for binding to the anchored ligands both in the presence of test compound and in its absence (control). Elution of the bound phage by free ligand (ATP-binding site ligand that is not immobilized on a solid support) followed by determination of the phage titre provides a reliable measure of the ability of test compounds to block binding of target kinases to resin-bound ATP-binding-site ligands.
# (§5) T7 kinase-tagged phage strains were grown in parallel in microtiter plates in a proprietary bacterial host derived from E. Coli strain BL21. E. Coli were grown to a log phase, infected with T7 kinase-tagged phage, and incubated while shaking at 32° C. until bacterial lysis (approx. 90 min). Lysates were centrifuged (6,000 g) and filtered (0.2 μm). Small molecule ATP-binding-site-specific ligands were anchored to solid supports via a two step process beginning with biotin conjugation followed by treatment of the biotin/small molecule conjugate with streptavidin-coated magnetic beads. […] The phage titre of the eluates was measured by quantitative PCR or by plaque assays. […]
# MST1 = MST1 (Homo sapiens, UniProt Q13043); assay: as above; settings: read-out: percent inhibition of binding
# Text: as §4, §5
# PDGFRB = PDGFRB (Homo sapiens, UniProt P09619); assay: as above; settings: read-out: percent inhibition of binding
# Text: as §4, §5
# RPSGKA1 = RPSGKA1 (Homo sapiens, UniProt Q15418); assay: as above; settings: read-out: % Inhibition of binding to ATP-binding-site ligand
# RPSGKA1, sequence (Q15418 whole entry): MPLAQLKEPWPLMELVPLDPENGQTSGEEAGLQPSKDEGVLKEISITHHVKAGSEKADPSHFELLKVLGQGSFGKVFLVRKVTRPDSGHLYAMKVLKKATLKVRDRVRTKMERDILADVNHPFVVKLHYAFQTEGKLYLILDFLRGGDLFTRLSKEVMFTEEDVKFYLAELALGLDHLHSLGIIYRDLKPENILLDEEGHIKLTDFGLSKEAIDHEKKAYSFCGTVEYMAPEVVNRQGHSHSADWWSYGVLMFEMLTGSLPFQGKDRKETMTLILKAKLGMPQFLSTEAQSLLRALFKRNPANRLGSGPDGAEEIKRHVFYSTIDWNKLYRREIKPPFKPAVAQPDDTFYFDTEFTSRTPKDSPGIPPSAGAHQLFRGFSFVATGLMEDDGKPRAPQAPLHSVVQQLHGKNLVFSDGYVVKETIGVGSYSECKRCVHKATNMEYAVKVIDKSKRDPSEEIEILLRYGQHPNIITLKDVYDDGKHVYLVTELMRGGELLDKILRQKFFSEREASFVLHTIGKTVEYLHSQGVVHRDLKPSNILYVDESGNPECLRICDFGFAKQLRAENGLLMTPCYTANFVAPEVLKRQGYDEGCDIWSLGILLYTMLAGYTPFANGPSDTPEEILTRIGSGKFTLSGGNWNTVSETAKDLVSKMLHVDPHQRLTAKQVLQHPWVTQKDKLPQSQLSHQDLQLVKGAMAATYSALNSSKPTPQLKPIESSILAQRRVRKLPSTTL
# Text: as §4, §5
# P38γ = P38γ (Homo sapiens, UniProt P53778); assay: SignalChem radioisotope protein kinase assay; type: biochemical; settings: 5 μl of 100 μM stock solution in 25 μl
# P38γ, sequence (P53778 whole entry): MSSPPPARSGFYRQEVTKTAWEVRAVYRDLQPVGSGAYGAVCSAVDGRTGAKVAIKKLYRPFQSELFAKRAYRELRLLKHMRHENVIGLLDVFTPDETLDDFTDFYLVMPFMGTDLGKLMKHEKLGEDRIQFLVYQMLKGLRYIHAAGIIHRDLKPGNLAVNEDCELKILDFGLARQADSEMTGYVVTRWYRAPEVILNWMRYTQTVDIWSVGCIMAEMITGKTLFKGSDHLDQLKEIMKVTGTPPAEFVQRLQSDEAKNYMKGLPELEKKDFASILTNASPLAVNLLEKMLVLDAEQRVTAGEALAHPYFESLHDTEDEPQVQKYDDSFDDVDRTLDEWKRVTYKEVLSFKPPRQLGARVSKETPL
# Text: (§1) The various protein kinase targets to be employed in the kinase profiling assay were cloned, expressed and purified in-house at SignalChem (Richmond, BC, Canada) using proprietary methods. Quality control testing is routinely performed on each of the SignalChem targets to ensure compliance to acceptable standards. Protein substrates employed in the target profiling process were synthesized internally. ^33P-ATP was purchased from PerkinElmer. All other materials were of standard grade. Compound 10 (FIG. 4) was supplied to SignalChem in a powder form. It was reconstituted in DMSO to form a stock solution which was then diluted with 10% DMSO to form a working stock solution (100 μM) that was then profiled against the various protein kinase targets. The assay conditions for the various protein kinase targets were optimized to yield acceptable enzymatic activity. In addition, the assays were optimized to give high signal-to-noise ratio.
# (§2) SignalChem uses a radioisotope assay format for profiling evaluation of protein kinase targets. Protein kinase assays were performed in triplicate at ambient temperature for 20-40 min (depending on the target) in a final volume of 25 μl according to the following assay reaction recipe: • Component 1: 5 μl of diluted active protein kinase target (˜10-40 nM final protein concentration in the assay) • Component 2: 5 μl of stock solution of substrate (1-5 μg of peptide or protein substrate) • Component 3: 5 μl of kinase assay buffer or protein kinase activator in kinase assay buffer • Component 4: 5 μl of Compound 10 (100 μM stock solution) or 10% DMSO • Component 5: 5 μl of 33P-ATP (25 μM stock solution, 0.8 μCi)
# (§3) The assay was initiated by the addition of ^33P-ATP and the reaction mixture incubated at ambient temperature for 20-40 minutes, depending on the protein kinase target. After the incubation period, the assay was terminated by spotting 10 μl of the reaction mixture onto a Millipore Multiscreen plate. The Millipore Multiscreen plate was washed 3 times for approximately 15 minutes each in a 1% phosphoric acid solution. The radioactivity on the P81 plate was counted in the presence of scintillation fluid in a Trilux scintillation counter. Blank control, which included all the assay components except the addition of the appropriate substrate (replaced with equal volume of assay dilution buffer), was set up for each protein kinase target. The corrected activity for each protein kinase target was determined by removing the blank control value.
# SRC = molecular target: T1, SRC (Homo sapiens, UniProt P12931); assay: SignalChem radioisotope protein kinase assay; type: biochemical; settings: 5 μl of 100 μM stock solution in 25 μl
# T1 construct: purchased SignalChem
# T1 sequence (P12931 whole entry, species assumed): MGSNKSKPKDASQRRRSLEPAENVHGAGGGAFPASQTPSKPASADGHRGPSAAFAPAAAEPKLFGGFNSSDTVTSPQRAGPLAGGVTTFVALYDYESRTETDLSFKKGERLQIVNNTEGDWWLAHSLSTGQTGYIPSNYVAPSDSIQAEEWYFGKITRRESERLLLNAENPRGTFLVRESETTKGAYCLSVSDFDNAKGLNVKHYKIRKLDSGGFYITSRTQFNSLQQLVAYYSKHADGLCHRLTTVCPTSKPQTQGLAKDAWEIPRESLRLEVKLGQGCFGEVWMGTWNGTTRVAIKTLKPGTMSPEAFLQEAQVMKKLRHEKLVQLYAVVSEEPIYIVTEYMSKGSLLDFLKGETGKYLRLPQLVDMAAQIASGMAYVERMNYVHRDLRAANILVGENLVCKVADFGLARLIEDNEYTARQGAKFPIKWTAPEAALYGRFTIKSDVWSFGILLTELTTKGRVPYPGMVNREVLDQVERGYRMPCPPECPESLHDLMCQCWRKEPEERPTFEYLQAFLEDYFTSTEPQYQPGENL
# Text: as §1, §2, §3
# FGR = FGR (Homo sapiens, UniProt P09769); assay: SignalChem radioisotope protein kinase assay; type: biochemical; settings: 5 μl of 100 μM stock solution in 25 μl
# FGR, sequence (P09769 whole entry, species assumed): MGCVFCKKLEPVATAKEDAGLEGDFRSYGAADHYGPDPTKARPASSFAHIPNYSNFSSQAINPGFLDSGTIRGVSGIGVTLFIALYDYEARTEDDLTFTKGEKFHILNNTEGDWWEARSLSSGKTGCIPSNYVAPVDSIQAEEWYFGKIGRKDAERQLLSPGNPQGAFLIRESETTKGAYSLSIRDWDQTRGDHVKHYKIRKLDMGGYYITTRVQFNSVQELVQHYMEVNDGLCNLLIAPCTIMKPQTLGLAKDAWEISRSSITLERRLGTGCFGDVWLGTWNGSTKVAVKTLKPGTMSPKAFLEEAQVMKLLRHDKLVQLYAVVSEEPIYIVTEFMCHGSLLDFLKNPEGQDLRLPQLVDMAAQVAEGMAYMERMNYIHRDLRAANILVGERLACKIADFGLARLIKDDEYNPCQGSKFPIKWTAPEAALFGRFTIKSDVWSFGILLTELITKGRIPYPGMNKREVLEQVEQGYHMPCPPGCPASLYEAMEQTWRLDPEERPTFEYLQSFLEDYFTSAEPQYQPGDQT
# Text: as §1, §2, §3
# RSK3 = molecular target: T2, RSK3 (Homo sapiens, UniProt Q15349); assay: SignalChem radioisotope protein kinase assay; type: biochemical; settings: 5 μl of 100 μM stock solution in 25 μl
# T2 construct: purchased SignalChem
# Text: as §1, §2, §3
# FMS = FMS (Homo sapiens, UniProt P07333); assay: SignalChem radioisotope protein kinase assay; type: biochemical; settings: 5 μl of 100 μM stock solution in 25 μl
# Text: as §1, §2, §3
# LYN B = LYN B (Homo sapiens, UniProt P07948); assay: SignalChem radioisotope protein kinase assay; type: biochemical; settings: 5 μl of 100 μM stock solution in 25 μl
# Text: as §1, §2, §3
# MST4 = MST4 (Homo sapiens, UniProt Q9P289); assay: SignalChem radioisotope protein kinase assay; type: biochemical; settings: 5 μl of 100 μM stock solution in 25 μl
# Text: as §1, §2, §3
# FRK = FRK (Homo sapiens, UniProt P42685); assay: SignalChem radioisotope protein kinase assay; type: biochemical; settings: 5 μl of 100 μM stock solution in 25 μl
# Text: as §1, §2, §3
# PAK2 = PAK2 (Homo sapiens, UniProt Q13177); assay: SignalChem radioisotope protein kinase assay; type: biochemical; settings: 5 μl of 100 μM stock solution in 25 μl
# Text: as §1, §2, §3
# TRKA = molecular target: T3, TRKA (Homo sapiens, UniProt P04629); assay: SignalChem radioisotope protein kinase assay; type: biochemical; settings: 5 μl of 100 μM stock solution in 25 μl
# T3 construct: purchased SignalChem
# T3 sequence (P04629 33-796, species assumed): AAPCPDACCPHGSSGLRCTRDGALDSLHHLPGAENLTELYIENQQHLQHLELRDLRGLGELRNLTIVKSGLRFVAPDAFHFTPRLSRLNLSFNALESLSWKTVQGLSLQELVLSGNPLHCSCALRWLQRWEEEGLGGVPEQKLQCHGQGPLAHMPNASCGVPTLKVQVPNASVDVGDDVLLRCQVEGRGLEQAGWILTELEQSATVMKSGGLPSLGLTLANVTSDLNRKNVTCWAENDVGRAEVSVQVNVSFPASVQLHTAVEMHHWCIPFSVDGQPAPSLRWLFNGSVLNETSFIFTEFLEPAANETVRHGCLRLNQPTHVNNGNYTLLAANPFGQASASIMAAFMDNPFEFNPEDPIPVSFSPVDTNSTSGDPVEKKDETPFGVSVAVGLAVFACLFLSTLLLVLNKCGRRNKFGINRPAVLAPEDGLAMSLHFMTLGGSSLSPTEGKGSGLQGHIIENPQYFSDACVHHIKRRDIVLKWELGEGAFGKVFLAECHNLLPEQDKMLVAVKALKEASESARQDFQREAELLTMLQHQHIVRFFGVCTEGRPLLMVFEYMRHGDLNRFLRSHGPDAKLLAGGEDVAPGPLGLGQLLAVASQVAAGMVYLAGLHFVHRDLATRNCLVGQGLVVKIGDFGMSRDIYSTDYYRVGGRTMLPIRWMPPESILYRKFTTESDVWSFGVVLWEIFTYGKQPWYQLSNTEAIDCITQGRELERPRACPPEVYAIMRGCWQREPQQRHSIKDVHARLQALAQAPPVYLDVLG
# Text: as §1, §2, §3
# p70S6K = p70S6K (Homo sapiens, UniProt P23443); assay: SignalChem radioisotope protein kinase assay; type: biochemical; settings: 5 μl of 100 μM stock solution in 25 μl
# p70S6K, sequence (P23443 whole entry): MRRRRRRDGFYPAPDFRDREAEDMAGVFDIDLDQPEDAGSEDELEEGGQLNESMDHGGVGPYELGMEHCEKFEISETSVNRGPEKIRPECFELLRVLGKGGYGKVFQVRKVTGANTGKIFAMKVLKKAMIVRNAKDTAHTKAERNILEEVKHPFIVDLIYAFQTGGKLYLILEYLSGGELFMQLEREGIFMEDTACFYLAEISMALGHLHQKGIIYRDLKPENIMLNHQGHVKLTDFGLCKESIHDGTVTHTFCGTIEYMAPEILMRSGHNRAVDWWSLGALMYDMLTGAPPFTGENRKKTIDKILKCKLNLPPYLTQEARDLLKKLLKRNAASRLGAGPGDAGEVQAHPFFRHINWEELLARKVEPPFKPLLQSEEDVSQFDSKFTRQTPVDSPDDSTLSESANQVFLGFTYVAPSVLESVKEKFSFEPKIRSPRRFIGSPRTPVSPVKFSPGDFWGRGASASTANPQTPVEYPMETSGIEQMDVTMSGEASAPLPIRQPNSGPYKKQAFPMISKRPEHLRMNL
# Text: as §1, §2, §3
# HER2 = HER2 (Homo sapiens, UniProt P04626); assay: SignalChem radioisotope protein kinase assay; type: biochemical; settings: 5 μl of 100 μM stock solution in 25 μl
# Text: as §1, §2, §3
# AKT3 = AKT3 (Homo sapiens, UniProt Q9Y243); assay: SignalChem radioisotope protein kinase assay; type: biochemical; settings: 5 μl of 100 μM stock solution in 25 μl
# AKT3, sequence (Q9Y243 whole entry, species assumed): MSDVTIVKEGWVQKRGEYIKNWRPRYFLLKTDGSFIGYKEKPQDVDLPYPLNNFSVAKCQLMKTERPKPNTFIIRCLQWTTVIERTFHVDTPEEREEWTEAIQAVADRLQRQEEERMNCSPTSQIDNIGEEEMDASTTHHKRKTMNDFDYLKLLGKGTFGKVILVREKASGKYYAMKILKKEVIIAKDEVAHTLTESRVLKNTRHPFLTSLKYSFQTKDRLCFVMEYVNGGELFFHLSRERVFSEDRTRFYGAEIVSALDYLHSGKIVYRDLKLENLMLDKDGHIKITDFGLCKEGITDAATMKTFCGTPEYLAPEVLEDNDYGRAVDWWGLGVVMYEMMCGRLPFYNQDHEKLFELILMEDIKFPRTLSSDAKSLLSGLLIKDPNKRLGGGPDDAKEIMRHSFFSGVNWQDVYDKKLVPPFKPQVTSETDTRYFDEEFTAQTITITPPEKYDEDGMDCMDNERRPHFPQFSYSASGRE
# Text: as §1, §2, §3
# PAK3 = PAK3 (Homo sapiens, UniProt O75914); assay: SignalChem radioisotope protein kinase assay; type: biochemical; settings: 5 μl of 100 μM stock solution in 25 μl
# Text: as §1, §2, §3
# CD2 L2, sequence (Q9UQ88 whole entry): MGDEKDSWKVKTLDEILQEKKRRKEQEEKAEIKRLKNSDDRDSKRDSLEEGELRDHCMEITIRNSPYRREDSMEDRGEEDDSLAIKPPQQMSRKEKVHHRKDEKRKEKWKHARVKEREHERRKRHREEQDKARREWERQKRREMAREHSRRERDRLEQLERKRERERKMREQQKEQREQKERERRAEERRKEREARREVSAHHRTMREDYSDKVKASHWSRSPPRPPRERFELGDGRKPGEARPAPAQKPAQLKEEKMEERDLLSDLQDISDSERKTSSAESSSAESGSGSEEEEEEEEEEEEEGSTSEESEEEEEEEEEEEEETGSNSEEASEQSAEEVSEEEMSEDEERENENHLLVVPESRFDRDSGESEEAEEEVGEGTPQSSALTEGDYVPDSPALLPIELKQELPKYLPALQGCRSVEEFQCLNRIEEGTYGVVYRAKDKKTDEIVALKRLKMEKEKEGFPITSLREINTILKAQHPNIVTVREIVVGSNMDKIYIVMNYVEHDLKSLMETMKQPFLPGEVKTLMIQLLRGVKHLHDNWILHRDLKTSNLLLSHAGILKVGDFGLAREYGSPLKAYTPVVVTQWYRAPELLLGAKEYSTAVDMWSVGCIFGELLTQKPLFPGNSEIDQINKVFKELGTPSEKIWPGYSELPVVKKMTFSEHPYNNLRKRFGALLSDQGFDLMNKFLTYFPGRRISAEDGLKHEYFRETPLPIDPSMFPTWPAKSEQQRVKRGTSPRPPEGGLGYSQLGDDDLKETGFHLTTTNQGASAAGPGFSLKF
structure (smiles),measurement,setting,value
CCOC(=O)C[C@@H]1C(O[Si](C)(C)C(C)(C)C)[C@H](n2cnc3c(NC(=O)Nc4ccccc4)ncnc32)O[C@@H]1CNC(=O)NC (stereo partly drawn) [Compound 10],inhibition at 10 µM,CD2 L2,20 to 29%
same,inhibition at 10 µM,MST1,20 to 29%
same,inhibition at 10 µM,PDGFRB,20 to 29%
same,inhibition at 10 µM,RPSGKA1,40%
same,% Activity Change,P38γ,14%
same,% Activity Change,SRC,−2%
same,% Activity Change,FGR,3%
same,% Activity Change,RSK3,10%
same,% Activity Change,FMS,−17%
same,% Activity Change,LYN B,12%
same,% Activity Change,MST4,47%
same,% Activity Change,FRK,24%
same,% Activity Change,PAK2,16%
same,% Activity Change,TRKA,−6%
same,% Activity Change,p70S6K,−1%
same,% Activity Change,HER2,4%
same,% Activity Change,AKT3,52%
same,% Activity Change,PAK3,524%
